Results published in PMC7093416, “Selective USP7 inhibition elicits cancer cell killing through a p53-dependent mechanism” (Scientific Reports, 2020).
“And” between values parts separate entries of the source, which are not always exact repeats. Equal entries are not always repeated.

Tested on: panel of 484 cancer cell lines
Assay: PRISM cancer cell line profiling, 5 days
Assay type: cell-based
Set-up: Viability: scale not given here; AUC: unit not given beside the values
Procedure: Cancer cell line profiling was performed using the Broad’s PRISM platform. Cell treatment and data analysis were performed as described in Yu et al[42]. Raw Luminex signal was converted to AUC values for each cell line as described. The resulting AUC profile for each compound was modeled against DepMap using the limma package in R[71]. Because hotspot mutation analysis was performed against DepMap, TP53 annotations in Fig. 6c,d are directly from DepMap.

[1] = ISHIKAWAHERAKLIO02ER_ENDOMETRIUM, pert_dose 6.10E-04
[2] = ISTMES1_PLEURA, pert_dose 6.10E-04
[3] = J82_URINARY_TRACT, pert_dose 6.10E-04
[4] = JHOC5_OVARY, pert_dose 6.10E-04
[5] = JHOM1_OVARY, pert_dose 6.10E-04
[6] = JHOS2_OVARY, pert_dose 6.10E-04
[7] = JHUEM2_ENDOMETRIUM, pert_dose 6.10E-04
[8] = JMSU1_URINARY_TRACT, pert_dose 6.10E-04
[9] = K029AX_SKIN, pert_dose 6.10E-04
[10] = KMBC2_URINARY_TRACT, pert_dose 6.10E-04
[11] = KMRC1_KIDNEY, pert_dose 6.10E-04
[12] = KMRC3_KIDNEY, pert_dose 6.10E-04
[13] = KMRC20_KIDNEY, pert_dose 6.10E-04
[14] = KNS42_CENTRAL_NERVOUS_SYSTEM, pert_dose 6.10E-04
[15] = KNS60_CENTRAL_NERVOUS_SYSTEM, pert_dose 6.10E-04
[16] = KNS81_CENTRAL_NERVOUS_SYSTEM, pert_dose 6.10E-04
[17] = KP3_PANCREAS, pert_dose 6.10E-04
[18] = KPL1_BREAST, pert_dose 6.10E-04

COc1ccc(C2=N[C@@H](c3ccc(Cl)cc3)[C@@H](c3ccc(Cl)cc3)N2C(=O)N2CCNC(=O)C2)c(OC(C)C)c1 [Nutlin-3A]
MFI ISHIKAWAHERAKLIO02ER_ENDOMETRIUM [1]: 17513 and 21089 and 23031 and 24710 and 21077
Viability [1]: 1.048
AUC (ISTMES1_PLEURA): 0.8886
MFI ISTMES1_PLEURA [2]: 2566 and 2035 and 2347.5 and 2015 and 3109
Viability [2]: 1.235
AUC (ISTMES2_PLEURA): 1.138
AUC (J82_URINARY_TRACT): 1.1759
MFI J82_URINARY_TRACT [3]: 7594 and 8347 and 7959 and 7415.5 and 7720
Viability [3]: 1.013
AUC (JHH1_LIVER): 0.9453
MFI JHH1_LIVER (JHH1_LIVER, pert_dose 6.10E-04): 11573 and 10266 and 10186 and 11807 and 10726
Viability (JHH1_LIVER, pert_dose 6.10E-04): 1.394
AUC (JHH4_LIVER): 1.013
MFI JHH4_LIVER (JHH4_LIVER, pert_dose 6.10E-04): 1508 and 1417.5 and 1162 and 1639 and 865
Viability (JHH4_LIVER, pert_dose 6.10E-04): 1.304
AUC (JHH5_LIVER): 1.1112
MFI JHH5_LIVER (JHH5_LIVER, pert_dose 6.10E-04): 3002.5 and 2853 and 3080 and 1890 and 2323
Viability (JHH5_LIVER, pert_dose 6.10E-04): 1.08
AUC (JHH6_LIVER): 1.195
AUC (JHH7_LIVER): 1.097
MFI JHH7_LIVER (JHH7_LIVER, pert_dose 6.10E-04): 18251 and 14971.5 and 12968 and 19915 and 22149.5
Viability (JHH7_LIVER, pert_dose 6.10E-04): 1.3367
AUC (JHOC5_OVARY): 0.8963
MFI JHOC5_OVARY [4]: 1729 and 2155 and 2543 and 1875 and 1529
Viability [4]: 1.248
AUC (JHOM1_OVARY): 1.061
MFI JHOM1_OVARY [5]: 10909 and 10588 and 11258 and 11487.5 and 8758
Viability [5]: 1.182
AUC (JHOS2_OVARY): 1.199
MFI JHOS2_OVARY [6]: 8954 and 9206 and 9624 and 7221 and 11208
Viability [6]: 1.028
AUC (JHUEM2_ENDOMETRIUM): 0.8108
MFI JHUEM2_ENDOMETRIUM [7]: 2855 and 2201 and 2113.5 and 2693 and 2731
Viability [7]: 1.224
AUC (JIMT1_BREAST): 1.15
MFI JIMT1_BREAST (JIMT1_BREAST, pert_dose 6.10E-04): 10595.5 and 12336 and 13040 and 10400 and 10776.5
AUC (JMSU1_URINARY_TRACT): 1.157
MFI JMSU1_URINARY_TRACT [8]: 4527 and 4135 and 3123.5 and 5456 and 3525
Viability [8]: 1.215
AUC (K029AX_SKIN): 1.078
MFI K029AX_SKIN [9]: 12564 and 8034.5 and 10939 and 12309 and 13968
Viability [9]: 1.186
AUC (KALS1_CENTRAL_NERVOUS_SYSTEM): 1.089
AUC (KELLY_AUTONOMIC_GANGLIA): 1.128
Viability (KELLY_AUTONOMIC_GANGLIA, pert_dose 6.10E-04): 1.339
AUC (KMBC2_URINARY_TRACT): 0.9038
MFI KMBC2_URINARY_TRACT [10]: 31608 and 32944 and 28231 and 28847.5 and 34382
Viability [10]: 1.231
AUC (KMRC1_KIDNEY): 0.8619
MFI KMRC1_KIDNEY [11]: 5006 and 3553 and 4568 and 4375 and 4801
Viability [11]: 1.324
AUC (KMRC3_KIDNEY): 1.059
MFI KMRC3_KIDNEY [12]: 29567 and 34290 and 33080.5 and 28662.5 and 32330
Viability [12]: 1.163
AUC (KMRC20_KIDNEY): 1.075
MFI KMRC20_KIDNEY [13]: 6115 and 7240 and 5574 and 9127.5 and 7315
Viability [13]: 0.8672
AUC (KNS42_CENTRAL_NERVOUS_SYSTEM): 1.094
MFI KNS42_CENTRAL_NERVOUS_SYSTEM [14]: 8504.5 and 8227 and 7874 and 8635.5 and 8359
Viability [14]: 1.265
AUC (KNS60_CENTRAL_NERVOUS_SYSTEM): 1.169
MFI KNS60_CENTRAL_NERVOUS_SYSTEM [15]: 11444.5 and 12827 and 11109 and 11402 and 11624
Viability [15]: 1.1124
AUC (KNS62_LUNG): 1.292
MFI KNS62_LUNG (KNS62_LUNG, pert_dose 6.10E-04): 2968.5 and 3165 and 4343 and 4527 and 3128
Viability (KNS62_LUNG, pert_dose 6.10E-04): 1.098
AUC (KNS81_CENTRAL_NERVOUS_SYSTEM): 0.9079
MFI KNS81_CENTRAL_NERVOUS_SYSTEM [16]: 11445 and 13291.5 and 12010.5 and 13242.5 and 18307.5
Viability [16]: 0.9016
AUC (KP2_PANCREAS): 1.091
AUC (KP3_PANCREAS): 1.107
MFI KP3_PANCREAS [17]: 17810 and 19047 and 22202 and 17616 and 20627.5
Viability [17]: 1.1325
AUC (KP4_PANCREAS): 1.1795
MFI KP4_PANCREAS (KP4_PANCREAS, pert_dose 6.10E-04): 27317.5 and 27770 and 29960.5 and 31578.5 and 28421.5
AUC (KPL1_BREAST): 0.8742
MFI KPL1_BREAST [18]: 9781 and 14848 and 14727 and 9958 and 12061.5
Viability [18]: 0.9855
AUC (KU1919_URINARY_TRACT): 0.8508
AUC (KURAMOCHI_OVARY): 1.126
AUC (KYSE30_OESOPHAGUS): 0.985
AUC (KYSE70_OESOPHAGUS): 1.1193
AUC (KYSE140_OESOPHAGUS): 1.1498
AUC (KYSE150_OESOPHAGUS): 1.138
AUC (KYSE180_OESOPHAGUS): 1.143
AUC (KYSE270_OESOPHAGUS): 0.9726
AUC (KYSE410_OESOPHAGUS): 1.088
AUC (KYSE510_OESOPHAGUS): 0.9924
AUC (KYSE520_OESOPHAGUS): 1.08
AUC (L33_PANCREAS): 1.295
AUC (LC1SQSF_LUNG): 1.142
AUC (LCLC103H_LUNG): 1.118
AUC (LI7_LIVER): 1.226
AUC (LK2_LUNG): 1.169
AUC (LMSU_STOMACH): 1.203
AUC (LN18_CENTRAL_NERVOUS_SYSTEM): 0.9973
AUC (LN229_CENTRAL_NERVOUS_SYSTEM): 1.064
AUC (LNCAPCLONEFGC_PROSTATE): 0.906
AUC (LOUNH91_LUNG): 1.066
AUC (LOVO_LARGE_INTESTINE): 1.199
AUC (LOXIMVI_SKIN): 0.8907
AUC (LS180_LARGE_INTESTINE): 0.8897
AUC (LS411N_LARGE_INTESTINE): 1.29
AUC (LS513_LARGE_INTESTINE): 0.8844
AUC (LS1034_LARGE_INTESTINE): 1.251
AUC (LU99_LUNG): 0.8923
AUC (LUDLU1_LUNG): 1.181
AUC (LXF289_LUNG): 1.109
AUC (MALME3M_SKIN): 0.9143
AUC (MCAS_OVARY): 1.217
AUC (MCF7_BREAST): 0.9374
AUC (MDAMB175VII_BREAST): 0.8089
AUC (MDAMB231_BREAST): 1.111
AUC (MDAMB435S_SKIN): 1.081
AUC (MDAMB436_BREAST): 1.063
AUC (MDAMB468_BREAST): 1.113
AUC (MELHO_SKIN): 1.198
AUC (MELJUSO_SKIN): 0.855
AUC (MESSA_SOFT_TISSUE): 0.8635
AUC (MEWO_SKIN): 1.1265
AUC (MFE280_ENDOMETRIUM): 1.185
AUC (MFE296_ENDOMETRIUM): 1.073
AUC (MFE319_ENDOMETRIUM): 1.2827
AUC (MG63_BONE): 1.195
AUC (MHHES1_BONE): 1.218
AUC (MIAPACA2_PANCREAS): 1.097
AUC (MKN1_STOMACH): 1.379
AUC (MKN7_STOMACH): 1.0858
AUC (MKN45_STOMACH): 0.8665
AUC (MKN74_STOMACH): 1.252
AUC (MON_SOFT_TISSUE): 0.7179
AUC (MPP89_PLEURA): 1.087
AUC (MSTO211H_PLEURA): 0.822
AUC (NB1_AUTONOMIC_GANGLIA): 0.8777
AUC (NCIH23_LUNG): 0.9857
AUC (NCIH28_PLEURA): 0.8619
AUC (NCIH226_LUNG): 0.8738
AUC (NCIH292_LUNG): 0.8581
AUC (NCIH322_LUNG): 1.162
AUC (NCIH358_LUNG): 1.107
AUC (NCIH446_LUNG): 1.181
AUC (NCIH460_LUNG): 0.8926
AUC (NCIH520_LUNG): 1.322
AUC (NCIH522_LUNG): 1.212
AUC (NCIH596_LUNG): 1.199
AUC (NCIH650_LUNG): 1.249
AUC (NCIH661_LUNG): 1.081
AUC (NCIH727_LUNG): 1.026
AUC (NCIH747_LARGE_INTESTINE): 1.189
AUC (NCIH838_LUNG): 0.9622
AUC (NCIH841_LUNG): 1.117
AUC (NCIH1048_LUNG): 1.2735
AUC (NCIH1299_LUNG): 1.108
AUC (NCIH1339_LUNG): 1.0925
AUC (NCIH1355_LUNG): 1.119
AUC (NCIH1373_LUNG): 1.06
AUC (NCIH1435_LUNG): 1.3405
AUC (NCIH1437_LUNG): 1.108
AUC (NCIH1563_LUNG): 0.9521
AUC (NCIH1568_LUNG): 1.038
AUC (NCIH1573_LUNG): 1.073
AUC (NCIH1581_LUNG): 1.043
AUC (NCIH1623_LUNG): 1.145
AUC (NCIH1648_LUNG): 1.123
AUC (NCIH1650_LUNG): 0.973
AUC (NCIH1651_LUNG): 1.183
AUC (NCIH1693_LUNG): 1.133
AUC (NCIH1703_LUNG): 1.137
AUC (NCIH1792_LUNG): 1.259
AUC (NCIH1793_LUNG): 1.1676
AUC (NCIH1838_LUNG): 1.199
AUC (NCIH1915_LUNG): 1.099
AUC (NCIH1944_LUNG): 0.8303
AUC (NCIH1975_LUNG): 1.115
AUC (NCIH2009_LUNG): 0.9703
AUC (NCIH2023_LUNG): 1.159
AUC (NCIH2030_LUNG): 1.1142
AUC (NCIH2052_PLEURA): 0.8463
AUC (NCIH2077_LUNG): 0.9696
AUC (NCIH2087_LUNG): 1.211
AUC (NCIH2110_LUNG): 1.143
AUC (NCIH2122_LUNG): 0.8016
AUC (NCIH2126_LUNG): 1.1108
